Experimental data as given in paper PMC10925992 (Heliyon, 2024).
Where a name gives a salt, the structure may show the parent alone.

Key:
[1] = biological target: catalytic domain of USP7 (USP7-CD) (Homo sapiens, UniProt Q93009); test: STD-NMR titration for dissociation constant; format: binding
USP7-CD = USP7-CD (Homo sapiens, UniProt Q93009); test: Thermal shift assay; conditions: decrease of Tm of USP7-CD, USP7 10 μM, ligand 1 mM
HCT116 cells = test: MTT anti-proliferation assay; format: cell-based, human; conditions: for inhibition of proliferation of cancerous cells: HCT116, MTT, 48 h; for IC50: Homo sapiens, HCT-116, 48 h
USP7 = conditions: read-out: IC50 of USP7 inhibition; no reference given; cited from earlier work
[2] = tested on: USP7, MDM2 and c-Myc mRNA in HCT-116 cells; test: Quantitative gene expression analysis; format: cell-based, human; conditions: HCT116, compound at IC50 concentration, 48 h, versus untreated cells
[3] = tested on: p53 mRNA in HCT-116 cells; test: Quantitative gene expression analysis; format: cell-based, human; conditions: HCT116, compound at IC50 concentration, 48 h, versus untreated cells

catalytic domain of USP7 (USP7-CD), sequence (Q93009 208-560): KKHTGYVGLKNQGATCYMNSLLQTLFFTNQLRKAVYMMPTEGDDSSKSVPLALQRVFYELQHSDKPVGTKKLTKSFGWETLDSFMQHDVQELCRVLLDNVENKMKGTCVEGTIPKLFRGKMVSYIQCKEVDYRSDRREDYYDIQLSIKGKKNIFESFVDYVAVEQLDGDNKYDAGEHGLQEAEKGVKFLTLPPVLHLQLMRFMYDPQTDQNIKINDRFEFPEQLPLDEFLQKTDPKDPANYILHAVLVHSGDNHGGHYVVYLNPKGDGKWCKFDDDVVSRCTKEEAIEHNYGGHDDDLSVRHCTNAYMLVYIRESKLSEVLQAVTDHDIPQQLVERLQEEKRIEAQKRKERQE
USP7-CD, sequence (Q93009 208-560): as above

Kd [1] | Structure (SMILES) | mRNA expression of proto-oncogenes (USP7, MDM2, c-Myc) [2] | other results
760 ± 560 µM | O=C(O)Cc1ccccc1Nc1c(Cl)cccc1Cl [Compound 2, Diclofenac Sodium] |  | Thermal Shift (Δtm) (USP7-CD): 2.40 °C
1490 ± 1410 µM | Clc1ccccc1CN1CCc2sccc2C1 [Compound 8, Ticlopidine Hydrochloride] |  | inhibition of proliferation of cancerous cells (HCT116 cells): inactive
 | N#Cc1nc2c(nc1C#N)-c1ccc(Cl)cc1C2=O [HBX 41108] |  | IC50 (USP7): 0.424 µM; Thermal Shift (Δtm) (USP7-CD; listed as 12): 6.20 °C
620 ± 560 µM | CC(C(=O)O)c1cccc(C(=O)c2ccccc2)c1 (stereo not shown) [Compound 3, Ketoprofen] |  | 
1100 ± 880 µM | CN1CCC(=C2c3ccccc3CC(=O)c3sccc32)CC1 [Compound 7, Ketotifen] | significantly decreased | IC50 (HCT116 cells): 89 ± 1.55 µM; mRNA expression of tumor suppressor gene (p53) [3]: non-significantly
910 ± 700 µM | CC(CCc1ccccc1)NCC(O)c1ccc(O)c(C(N)=O)c1 (stereo not shown) [Compound 4, Labetalol Hydrochloride] |  | Thermal Shift (Δtm) (USP7-CD): 3.95 °C
1220 ± 1120 µM | CN(C)CCC[C@@]1(c2ccc(F)cc2)OCc2cc(C#N)ccc21 [Compound 11, Escitalopram] | significantly decreased | IC50 (HCT116 cells): 227.6 ± 0.71 µM; mRNA expression of tumor suppressor gene (p53) [3]: non-significantly
780 ± 530 µM | Nc1c(CC(=O)O)cccc1C(=O)c1ccc(Br)cc1 [Compound 1, Bromfenac Sodium] |  | 
870 ± 280 µM | COc1ccnc(C[S+]([O-])c2nc3ccc(OC(F)F)cc3[nH]2)c1OC (stereo not shown) [Compound 10, Pantoprazole Sodium] | significantly decreased | IC50 (HCT116 cells): 222 ± 0.29 µM
660 ± 460 µM | CCN(CC)CC#CCOC(=O)C(O)(c1ccccc1)C1CCCCC1 (stereo not shown) [Compound 6, Oxybutynin HCl] | significantly decreased | 
1000 ± 560 µM | Nc1nnc(-c2cccc(Cl)c2Cl)c(N)n1 [Compound 9, Lamotrigine] |  | inhibition of proliferation of cancerous cells (HCT116 cells): inactive
